Patent US8841413B2, “Antidiabetic compounds” (Cadila Healthcare Limited, priority 2006, dated 2014)
Like-named read-outs stand apart in the source and are kept apart here.

Experiments:
[1] = Stability in human plasma; assay type: in vitro ADME; settings: for half-life at 2 μM: pooled human plasma, pH 7.8, 37° C.
Summary of the method: (§1)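 Quench: TFA/H2O 10% v/v. HPLC, TFA/H2O equilibration, 1 mL/min; UV 206 nm. Peaks hand-collected → ESI-MS.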

[2] = tested on: RIN5F (Rat Insulinoma) cells; assay: In vitro glucose-dependent insulin secretion (RIN5F cell assay); assay type: cell-based; settings: 16.7 mM glucose load, mean ± S.D., n = 3
Description: After trypsinization, RIN5F cells were seeded at a concentration of 0.2×10^6·cells per well, in 12 well plates.
The supernatant was collected and the insulin amount was measured by ultra sensitive Rat insulin ELISA kit (Crystal Chem, Ill.). The protein was estimated in the supernatant using Bicinchoninic Acid kit, according to the manufacturer's protocol (Sigma Aldrich, Mo.). The total insulin content obtained in Pico-gram (pg) was divided with the total protein (μg) in order to normalize for differences in cell density between wells.

[3] = Stability against liver microsomes; assay type: in vitro ADME, human; settings: for half-life at 2 μM: human liver microsomes, pH 7.8, 37° C.
Summary of the method: as §1

[4] = Stability in simulated gastric fluid; assay type: in vitro ADME; settings: 37° C., pH 1.5, pepsin; for half-life at 2 μM: simulated gastric fluid with pepsin
Summary of the method: as §1

DPP IV = DPP IV (Homo sapiens, UniProt P27487); assay: Stability against DPP IV enzyme; assay type: in vitro ADME; settings: for half-life at 2 μM: DPP IV enzyme, pH 7.8, 37° C.
Summary of the method: as §1

[5] = Stability in simulated intestinal fluid; assay type: in vitro ADME; settings: 37° C.; for half-life at 2 μM: simulated intestinal fluid, pH 7.5, read-out: half-life (t1/2) in simulated intestinal fluid
Summary of the method: as §1

human glucagon receptor = target: T1, human glucagon receptor (Homo sapiens, UniProt P47871); assay: In vitro human glucagon antagonist activity (inhibition of cAMP production), CHO/human glucagon R cells; assay type: cell-based
T1 construct: The full-length cDNA was cloned in pcDNA3.1(Invitrogen); expressed in transfected cells
Description: CHO cells were grown in Ham's F12 medium containing L-Glutamine (2 mM), HEPES (25 mM), NaHCO3 (1.1 g/L) and supplemented with newborn Calf Serum (NBCS; 10%), Penicillin (50 U/ml (v/v)) and Streptomycin (50 ug/ml (v/v)). Cells were split every 3 days 1:8.
The full-length cDNA was cloned in pcDNA3.1(Invitrogen). […] Clones expressing the receptor were generated by G418 (800 μg/ml active, Sigma) selection. The stable clones were thereafter maintained at 500 ug/ml (G418). The selected clone was used between passages 9-25 for cAMP assays.
The trypsin was inactivated using Ham's F12 medium containing 10% NBCS and the cells were suspended in 2 ml of complete medium. […] The medium was aspirated off from the 12 well plate and the cells were washed once using Ham's F12 (plain). […] After the incubation; the medium was removed and cells were washed once with plain Ham's F12. Subsequently, the cells were lysed by adding 500 ul of ice cold 0.1 N HCl to each well and shaking for 30 minutes at 200 rpm. The cells were then scrapped, the lysate was collected in micro centrifuge tubes and centrifuged at 12000 rpm for 10 min to remove the debris. 300 ul of supernatant from each micro-centrifuge tube was then removed into a glass tube and dried under N2 for 30 min, for cAMP estimation. The total cAMP was estimated from the sample according to the manufacturer's protocol using Cyclic AMP immunoassay kit (R&D systems, Minneapolis: MN). The remaining supernatant is used to determine the protein concentration using micro BCA (Sigma). Data is calculated as percent of control (Vehicle: water) and expressed as Mean+SD.

Human GLP-1 receptor = target: T2, Human GLP-1 receptor (Homo sapiens, UniProt P43220); assay type: cell-based
T2 construct: The full-length cDNA was cloned in pcDNA3.1(+); expressed in transfected cells
Summary of the method: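 Stably transfected CHO cells expressing human GLP-1R, passages 9-25, exposed to compounds for 30 min at 37 °C. Lysed in ice-cold 0.1 N HCl; total cAMP by immunoassay, protein by micro BCA; expressed as percent of water vehicle control, mean±SD.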

[6] = human, read-out: half-life (t1/2) in human plasma
[7] = human, read-out: half-life (t1/2) with liver microsomes
[8] = read-out: half-life (t1/2) with DPP-IV enzyme
[9] = 1 nM test compound (fourth concentration column, between 100 nM and 10 μM) with saturated concentration of glucagon peptide
[10] = 1 nM test compound with saturated concentration of glucagon peptide
[11] = 10 nM test compound with saturated concentration of glucagon peptide
[12] = 100 nM test compound with saturated concentration of glucagon peptide
[13] = 10 μM test compound with saturated concentration of glucagon peptide
[14] = read-out: half-life (t1/2) in simulated gastric fluid

T1 sequence (P47871 26-477): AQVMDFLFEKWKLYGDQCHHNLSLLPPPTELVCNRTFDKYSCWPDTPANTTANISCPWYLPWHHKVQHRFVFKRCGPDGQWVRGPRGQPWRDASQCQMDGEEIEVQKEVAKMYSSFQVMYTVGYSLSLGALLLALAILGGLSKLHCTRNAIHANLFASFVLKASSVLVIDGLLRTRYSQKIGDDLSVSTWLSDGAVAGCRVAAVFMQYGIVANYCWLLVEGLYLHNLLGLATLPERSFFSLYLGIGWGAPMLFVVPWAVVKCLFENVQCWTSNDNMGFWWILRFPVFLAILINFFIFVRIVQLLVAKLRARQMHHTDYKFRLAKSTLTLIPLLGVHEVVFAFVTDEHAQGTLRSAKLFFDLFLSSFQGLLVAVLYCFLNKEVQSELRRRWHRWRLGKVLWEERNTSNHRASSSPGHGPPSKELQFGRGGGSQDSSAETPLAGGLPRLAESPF
Chain of DPP IV (P27487 whole entry, species assumed): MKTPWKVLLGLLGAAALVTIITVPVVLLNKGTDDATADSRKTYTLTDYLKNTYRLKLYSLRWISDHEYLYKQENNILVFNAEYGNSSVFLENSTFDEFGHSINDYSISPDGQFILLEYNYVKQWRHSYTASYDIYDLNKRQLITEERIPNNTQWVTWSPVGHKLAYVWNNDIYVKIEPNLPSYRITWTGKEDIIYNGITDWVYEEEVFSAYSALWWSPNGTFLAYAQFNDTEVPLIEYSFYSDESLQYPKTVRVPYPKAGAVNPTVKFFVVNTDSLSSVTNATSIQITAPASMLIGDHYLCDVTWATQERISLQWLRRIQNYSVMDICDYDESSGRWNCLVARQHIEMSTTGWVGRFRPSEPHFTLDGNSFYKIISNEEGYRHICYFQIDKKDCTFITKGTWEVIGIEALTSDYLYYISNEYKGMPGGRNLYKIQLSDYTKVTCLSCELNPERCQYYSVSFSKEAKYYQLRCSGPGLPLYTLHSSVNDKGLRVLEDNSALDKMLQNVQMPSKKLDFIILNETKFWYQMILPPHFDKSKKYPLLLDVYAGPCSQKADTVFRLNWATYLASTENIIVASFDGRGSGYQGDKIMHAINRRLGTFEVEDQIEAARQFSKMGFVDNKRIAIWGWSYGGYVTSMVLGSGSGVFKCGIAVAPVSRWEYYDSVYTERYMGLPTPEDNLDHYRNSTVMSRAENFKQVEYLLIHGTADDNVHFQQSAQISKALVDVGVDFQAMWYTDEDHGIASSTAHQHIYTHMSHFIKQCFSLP
T2 sequence (P43220 24-463): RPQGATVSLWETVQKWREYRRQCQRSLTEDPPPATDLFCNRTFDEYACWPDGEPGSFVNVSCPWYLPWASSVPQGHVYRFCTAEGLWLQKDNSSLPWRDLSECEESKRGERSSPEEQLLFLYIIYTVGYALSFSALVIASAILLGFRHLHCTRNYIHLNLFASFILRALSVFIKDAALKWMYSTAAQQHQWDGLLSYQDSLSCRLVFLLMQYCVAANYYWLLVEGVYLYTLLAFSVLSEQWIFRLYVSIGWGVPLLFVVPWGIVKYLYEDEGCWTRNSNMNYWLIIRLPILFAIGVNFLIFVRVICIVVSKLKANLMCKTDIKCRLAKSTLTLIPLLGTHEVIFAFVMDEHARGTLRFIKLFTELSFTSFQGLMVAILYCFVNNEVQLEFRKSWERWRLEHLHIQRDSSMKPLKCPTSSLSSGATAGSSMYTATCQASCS

Row | Compound | % degradation in 24 h when incubated with human plasma ([1]; 2 μM, 37° C.) [%] | half-life at 2 μM [1, 6] [h] | Insulin secretion ([2]; 0.1 nM test compd.) [pg/µg/h] | Insulin secretion ([2]; 1 nM test compd.) [pg/µg/h] | Insulin secretion ([2]; 10 nM test compd.) [pg/µg/h] | % degradation in 24 h when incubated with liver microsomes ([3]; 2 μM, 37° C.) [%] | half-life at 2 μM [3, 7] [h] | % degradation in 24 h when incubated with simulated gastric fluid ([4]; 2 μM) [%] | half-life (t1/2) in simulated gastric fluid ([4]; 2 μM) | % degradation in 24 h when incubated with DPP-IV enzyme (DPP IV; 2 μM, 37° C.) [%] | half-life at 2 μM (DPP IV; [8]) [h] | % degradation in 24 h when incubated with simulated intestinal fluid ([5]; 2 μM, pH 7.5) [%] | half-life (t1/2) in simulated intestinal fluid ([5]; 2 μM, pH 7.5) | Human Glucagon receptor antagonistic activity, inhibition of cAMP production of Glucagon peptide (human glucagon receptor; [9]) [pmol/ml/μg prt] | Human Glucagon receptor antagonistic activity, inhibition of cAMP production of Glucagon peptide (human glucagon receptor; [10]) [pmol/ml/μg prt] | Human Glucagon receptor antagonistic activity, inhibition of cAMP production of Glucagon peptide (human glucagon receptor; [11]) [pmol/ml/μg prt] | Human Glucagon receptor antagonistic activity, inhibition of cAMP production of Glucagon peptide (human glucagon receptor; [12]) [pmol/ml/μg prt] | Human Glucagon receptor antagonistic activity, inhibition of cAMP production of Glucagon peptide (human glucagon receptor; [13]) [pmol/ml/μg prt] | half-life (t1/2) in human plasma ([1]; 2 μM, 37° C.) | half-life at 2 μM [4, 14] [h] | further results
1 | CCc1cc(OC)ccc1-c1ccc(CC(NC(=O)[C@H](CC(=O)O)NC(=O)[C@H](CO)NC(=O)[C@@H](NC(=O)C(C)(Cc2ccccc2F)NC(=O)[C@@H](NC(=O)CNC(=O)[C@H](CCC(N)=O)NC(=O)[C@H](CO)NC(=O)[C@@H](N)Cc2c[nH]cn2)[C@@H](C)O)[C@@H](C)O)C(=O)NC(Cc2ccc(-c3ccccc3C)nc2)C(N)=O)cc1 (single isomer, unassigned) [compound 22] | 77 | 8 | 12.1 ± 0.42 | 14.6 ± 0.41 | 27.8 ± 0.46 | 81 | 1 | 14 | (8) h | 75 | 9 | 45 | (6) h | 18 ± 0.03 | 21 ± 0.11 | 19 ± 0.02 | 18 ± 0.07 | 16 ± 0.02 |  |  | 
2 | CCc1cc(OC)ccc1-c1ccc(CC(NC(=O)[C@H](CC(=O)O)NC(=O)[C@H](CO)NC(=O)[C@@H](NC(=O)[C@H](Cc2ccccc2)NC(=O)[C@@H](NC(=O)CNC(=O)[C@H](CCC(N)=O)NC(=O)[C@H](CO)NC(=O)[C@@H](N)Cc2c[nH]cn2)[C@@H](C)O)[C@@H](C)O)C(=O)NC(Cc2ccc(-c3ccccc3C(F)(F)F)cc2)C(N)=O)cc1 (single isomer, unassigned) [compound 8] | 78 |  | 12.6 ± 0.20 | 15.9 ± 0.31 | 28.4 ± 0.11 | 100 | 0.5 | 100 |  | 76 |  | 100 |  | 0 | 4 ± 0.01 | 2 ± 0.17 | 0 | 0 | (9) h | 0.5 | half-life at 2 μM [5]: 0.5 h
3 | CCc1cc(OC)ccc1-c1ccc(CC(NC(=O)[C@H](CC(=O)O)NC(=O)[C@H](CO)NC(=O)[C@@H](NC(=O)C(C)(Cc2ccccc2F)NC(=O)[C@@H](NC(=O)CNC(=O)[C@H](CCC(N)=O)NC(=O)[C@H](C)NC(=O)[C@@H](N)Cc2c[nH]cn2)[C@@H](C)O)[C@@H](C)O)C(=O)NC(Cc2ccc(-c3ccccc3C)cc2)C(N)=O)cc1 (single isomer, unassigned) [compound 25] | 75 | 8 | 12.4 ± 0.22 | 15.2 ± 0.32 | 29.6 ± 0.50 | 83 | 1 | 12 | (8) h | 74 | 9 | 46 | (6) h | 8 ± 0.12 | 18 ± 0.12 | 16 ± 0.11 | 12 ± 0.13 | 6 ± 0.18 |  |  | 
4 | CCc1cc(OC)ccc1-c1ccc(CC(NC(=O)[C@H](CC(=O)O)NC(=O)[C@H](CO)NC(=O)[C@@H](NC(=O)[C@H](Cc2ccccc2)NC(=O)[C@@H](NC(=O)CNC(=O)[C@H](CCC(N)=O)NC(=O)[C@H](CO)NC(=O)[C@@H](N)Cc2c[nH]cn2)[C@@H](C)O)[C@@H](C)O)C(=O)NC(Cc2ccc(-c3ccccc3C)nc2)C(N)=O)cc1 (single isomer, unassigned) [compound 6] | 77 |  | 12.4 ± 0.26 | 15.2 ± 0.33 | 29.6 ± 0.51 | 100 | 0.5 | 100 |  | 75 |  | 100 |  |  |  |  |  |  | (9) h | 0.5 | half-life at 2 μM [5]: 0.5 h
5 | CCc1cc(OC)ccc1-c1ccc(CC(NC(=O)[C@H](CC(=O)O)NC(=O)[C@H](CO)NC(=O)[C@@H](NC(=O)[C@H](Cc2ccccc2)NC(=O)[C@@H](NC(=O)CNC(=O)[C@H](CCC(N)=O)NC(=O)C2(NC(=O)[C@@H](N)Cc3c[nH]cn3)CC2)[C@@H](C)O)[C@@H](C)O)C(=O)NC(Cc2ccc(-c3ccccc3C)nc2)C(N)=O)cc1 (single isomer, unassigned) [compound 18] | 00 |  |  |  |  | 81 |  | 52 |  | 00 |  | 00 |  |  |  |  |  |  |  |  | half-life ([1]; human, plasma, 2 μM, 37° C., read-out: half-life (t1/2) in human plasma): > 24 h; Human GLP-1 R activity (cAMP release), % activity with respect to control (Human GLP-1 receptor; 1 nM test compound): 86 ± 0.11%; Human GLP-1 R activity (cAMP release), % activity with respect to control (Human GLP-1 receptor; 10 nM test compound): 99 ± 0.09%; Human GLP-1 R activity (cAMP release), % activity with respect to control (Human GLP-1 receptor; 100 nM test compound): 99 ± 0.06%; Human GLP-1 R activity (cAMP release), % activity with respect to control (Human GLP-1 receptor; 1 μM test compound): 99 ± 0.14%; Human GLP-1 R activity (cAMP release), % activity with respect to control (Human GLP-1 receptor; 10 μM test compound): 99 ± 0.19%; half-life ([3]; human, microsomes, 2 μM, 37° C., read-out: half-life (t1/2) with liver microsomes): 2 h; half-life ([4]; simulated gi fluid, 2 μM, read-out: half-life (t1/2) in simulated gastric fluid): 4 h; half-life (DPP IV; 2 μM, 37° C., read-out: half-life (t1/2) with DPP-IV enzyme): > 24 h; half-life ([5]; simulated gi fluid, 2 μM, pH 7.5, read-out: half-life (t1/2) in simulated intestinal fluid): > 24 h
